Assay results taken from patent US6107312A, “Thiopyridines for use in the control of helicobacter bacteria” (BYK Gulden Lomberg Chemische Fabrik GmbH, priority 1994, dated 2000).
≈ marks a conversion by molar mass, not a printed value.

Test system: Helicobacter pylori
Assay: activity against Helicobacter pylori (method of Iwahi et al., Columbia agar, growth period of 4 days)
Format: cell-based
Details: Columbia agar (Oxoid); for MIC50: 96 h, read-out: Approximate MIC50

| SMILES | MIC50 [mg/L] | Approximate MIC50 [mg/L] |
| --- | --- | --- |
| CCCC(=O)n1c(SCc2nccc(SCc3ccco3)c2C)nc2ccccc21 [Compound 9, 1-n-Butyroyl-2-{[[4-(2-furylmethylthio)-3-methyl-2-pyridinyl]methyl]thio}benzimidazole] | – | ~0.1 |
| Cc1c(SCc2ccco2)ccnc1CSc1nc2cccnc2[nH]1 [Compound 1, 2-{[[4-(2-Furylmethylthio)-3-methyl-2-pyridinyl]methyl]thio}-1H-imidazo-[2,3-b]-pyridine] | ~0.1 (≈ 0.271 µM) | – |
| C=CC(=O)n1c(SCc2nccc(SCc3ccco3)c2C)nc2ccccc21 [Compound 8, 1-Acryloyl-2-{[[4-(2-furylmethylthio)-3-methyl-2-pyridinyl]methyl]thio}benzimidazole] | ~0.1 (≈ 0.237 µM) | – |

Now from value to compound, other results behind:

| MIC50 [mg/L] | SMILES | Approximate MIC50 [mg/L] |
| --- | --- | --- |
| ~0.5 (≈ 1.22 µM) | CC(=O)n1c(SCc2nccc(SCc3ccco3)c2C)nc2ccccc21 [Compound 7, 1-Acetyl-2-{[[4-(2-furylmethylthio)-3-methyl-2-pyridinyl]methyl]thio}benzimidazole] | – |
| ~0.5 (≈ 1.12 µM) | Cc1c(SCc2ccco2)ccnc1CSc1nc2ccccc2n1S(C)(=O)=O [Compound 10, 2-{[[4-(2-Furylmethylthio)-3-methyl-2-pyridinyl]methyl]thio}-1-methylsulfonyl-benzimidazole] | – |
